Earlier results in US20140187505A1, “Cardiac Glycosides to Treat Cystic Fibrosis and Other IL-8 Dependent Disorders” (priority 2002, published 2014).
Where two headings read alike, the source gives them in different places.

Experiments:
[1] = eluent acetonitrile/water 45:55; cited from earlier work
[2] = octanol/water (20 mM TRIS-HCl, pH 7.4), cited from earlier work
[3] = tested on: guinea-pig heart Na^+-K^+-ATPase; settings: cited from earlier work
[4] = mobile phase: methanol/water 30:70; cited from earlier work

Molecule	K retentions for reversed-phase high pressure liquid chromatography [1]	P (partition coefficient in octanol/water system) [2]	ID50 [3]	RM values (lipophilicity, reversed-phase thin layer chromatography) [4]	P (partition coefficient in octanol/water system) ([2]; listed as B-methyl digitoxin)	R values for reversed-phase thin layer chromatography [4]
α-Methyldigoxin	1.13	56.6 ± 9.8	2.23 ± 0.11 ×10^−4 mol l^−1	0.54	–	–
CC(=O)O[C@H]1[C@@H](OC(C)=O)C[C@H](O[C@H]2[C@@H](OC(C)=O)C[C@H](O[C@H]3[C@@H](OC(C)=O)C[C@H](O[C@H]4CC[C@@]5(C)[C@H](CC[C@@H]6[C@@H]5CC[C@]5(C)[C@@H](C7=CC(=O)OC7)[C@@H](OC(C)=O)C[C@]65O)C4)O[C@@H]3C)O[C@@H]2C)O[C@@H]1C [Pentaacetylgitoxin]	49.45	2890.0 ± 668.0	112.00 ± 10.70 ×10^−4 mol l^−1	1.86	–	–
CC(=O)O[C@@H]1C[C@H]2[C@@H](CC[C@@H]3C[C@@H](O[C@H]4C[C@H](O)[C@H](O[C@H]5C[C@H](O)[C@H](O[C@H]6C[C@H](O)[C@H](O)[C@@H](C)O6)[C@@H](C)O5)[C@@H](C)O4)CC[C@@]32C)[C@@]2(O)CC[C@H](C3=CC(=O)OC3)[C@@]12C [12-Acetyldigoxin]	1.60	195.0 ± 17.5	20.90 ± 0.98 ×10^−4 mol l^−1	0.89	–	–
C[C@H]1O[C@@H](O[C@H]2[C@@H](O)C[C@H](O[C@H]3[C@@H](O)C[C@H](O[C@H]4CC[C@@]5(C)[C@H](CC[C@@H]6[C@@H]5CC[C@]5(C)[C@H](C7COC(=O)C7)CC[C@]65O)C4)O[C@@H]3C)O[C@@H]2C)C[C@H](O)[C@@H]1O (stereo partly drawn) [Dihydro-digitoxin]	3.40	800.0 ± 112.0	32.40 ± 2.85 ×10^−4 mol l^−1	1.42	–	–
CC(=O)O[C@H]1C[C@]2(O)[C@@H]3CC[C@@H]4C[C@@H](O[C@H]5C[C@H](O)[C@H](O[C@H]6C[C@H](O)[C@H](O[C@H]7C[C@H](O)[C@H](O)[C@@H](C)O7)[C@@H](C)O6)[C@@H](C)O5)CC[C@]4(C)[C@H]3CC[C@]2(C)[C@H]1C1=CC(=O)OC1 [16-Acetylgitoxin]	2.27	144.0 ± 32.8	0.85 ± 0.01 ×10^−4 mol l^−1	0.89	–	–
C[C@]12CC[C@H](O)C[C@H]1CC[C@@H]1[C@@H]2CC[C@]2(C)[C@@H](C3=CC(=O)OC3)[C@@H](O)C[C@]12O [Gitoxigenin]	0.67	44.1 ± 1.8	21.37 ± 0.97 ×10^−4 mol l^−1	0.38	–	–
α,β-Diacetyldigoxin	4.31	392.0 ± 82.0	1.27 ± 0.02 ×10^−4 mol l^−1	1.16	–	–
CO[C@H]1C[C@H](O[C@H]2CC[C@]3(C=O)[C@H]4CC[C@]5(C)[C@@H](C6=CC(=O)OC6)CC[C@]5(O)[C@@H]4CC[C@]3(O)C2)O[C@H](C)[C@H]1O[C@@H]1O[C@H](CO[C@@H]2O[C@H](CO)[C@@H](O)[C@H](O)[C@H]2O)[C@@H](O)[C@H](O)[C@H]1O [k-Strophanthin-γ]	0.21	0.15 ± 0.07	2.47 ± 0.25 ×10^−4 mol l^−1	−0.62	–	–
β-Acetyldigoxin	1.25	99.2 ± 4.1	1.60 ± 0.02 ×10^−4 mol l^−1	0.70	–	–
C[C@@H]1O[C@@H](O[C@H]2C[C@@H](O)[C@]3(CO)[C@H]4[C@H](O)C[C@]5(C)[C@@H]([C@@H]6COC(=O)C6)CC[C@]5(O)[C@@H]4CC[C@]3(O)C2)[C@H](O)[C@H](O)[C@H]1O [Dihydro-ouabain]	0.15	0.20 ± 0.00	45.50 ± 3.90 ×10^−4 mol l^−1	−0.71	–	–
Dihydro-digoxin	0.51	–	40.90 ± 3.35 ×10^−4 mol l^−1	0.24	–	–
12-Acetyl-β-methyldigoxin	4.04	746.0 ± 71.3	25.55 ± 1.70 ×10^−4 mol l^−1	1.26	–	–
C[C@H]1O[C@@H](O[C@H]2[C@@H](OC=O)C[C@H](O[C@H]3[C@@H](OC=O)C[C@H](O[C@H]4CC[C@@]5(C)[C@H](CC[C@@H]6[C@@H]5CC[C@]5(C)[C@@H](C7=CC(=O)OC7)[C@@H](OC=O)C[C@]65O)C4)O[C@@H]3C)O[C@@H]2C)C[C@H](OC=O)[C@@H]1OC=O [Pentaformylgitoxin]	8.99	1440.0 ± 118.3	0.23 ± 0.00 ×10^−4 mol l^−1	1.85	–	–
CO[C@H]1C[C@H](O[C@H]2CC[C@]3(C=O)[C@H]4CC[C@]5(C)[C@@H](C6=CC(=O)OC6)CC[C@]5(O)[C@@H]4CC[C@]3(O)C2)O[C@H](C)[C@H]1O[C@@H]1O[C@H](CO)[C@@H](O)[C@H](O)[C@H]1O [k-Strophanthin-β]	0.22	0.11 ± 0.01	2.51 ± 0.12 ×10^−4 mol l^−1	−0.50	–	–
α-Acetyldigoxin	0.99	54.6 ± 7.8	2.50 ± 0.31 ×10^−4 mol l^−1	0.50	–	–
CO[C@H]1[C@@H](O)C[C@H](O[C@H]2[C@@H](O)C[C@H](O[C@H]3[C@@H](O)C[C@H](O[C@H]4CC[C@@]5(C)[C@H](CC[C@@H]6[C@@H]5C[C@@H](O)[C@]5(C)[C@@H](C7=CC(=O)OC7)CC[C@]65O)C4)O[C@@H]3C)O[C@@H]2C)O[C@@H]1C [β-Methyldigoxin]	1.19	63.3 ± 20.9	1.55 ± 0.06 ×10^−4 mol l^−1	–	–	–
α,β-Dimethyldigoxin	2.76	138.0 ± 12.1	1.28 ± 0.06 ×10^−4 mol l^−1	0.94	–	–
COC1C(O)CC(OC2C(O)CC(OC3C(O)CC(OC4CCC5(C)C(CCC6C5CCC5(C)C(C7=CC(=O)OC7)CCC65O)C4)OC3C)OC2C)OC1C (stereo not drawn) [β-Methyldigitoxin]	8.28	1300.0 ± 227.0	0.40 ± 0.03 ×10^−4 mol l^−1	1.71	1300	–
C[C@H]1O[C@@H](O[C@H]2[C@@H](O)C[C@H](O[C@H]3[C@@H](O)C[C@H](O[C@H]4CC[C@@]5(C)[C@H](CC[C@@H]6[C@@H]5CC[C@]5(C)[C@@H](C7=CC(=O)OC7)[C@@H](OC=O)C[C@]65O)C4)O[C@@H]3C)O[C@@H]2C)C[C@H](O)[C@@H]1O [16-Formylgitoxin]	1.82	110.9 ± 6.2	0.78 ± 0.01 ×10^−4 mol l^−1	0.84	–	–
CO[C@H]1C[C@H](O[C@H]2CC[C@]3(C=O)[C@H]4CC[C@]5(C)[C@@H](C6=CC(=O)OC6)CC[C@]5(O)[C@@H]4CC[C@]3(O)C2)O[C@H](C)[C@H]1O [k-Strophanthin-α]	0.79	4.40 ± 0.3	1.29 ± 0.14 ×10^−4 mol l^−1	−0.09	–	–
C[C@]12CC[C@H]3[C@@H](CC[C@]4(O)C[C@@H](O)CC[C@]34C=O)[C@@]1(O)CC[C@@H]2C1=CC(=O)OC1 [k-Strophanthidin]	0.42	3.60 ± 0.5	17.80 ± 0.81 ×10^−4 mol l^−1	–	–	−0.14
C[C@H]1O[C@@H](O[C@H]2[C@@H](O)C[C@H](O[C@H]3[C@@H](O)C[C@H](O[C@H]4CC[C@@]5(C)[C@H](CC[C@@H]6[C@@H]5CC[C@]5(C)[C@@H](C7=CC(=O)OC7)[C@@H](O)C[C@]65O)C4)O[C@@H]3C)O[C@@H]2C)C[C@H](O)[C@@H]1O [Gitoxin]	1.28	48.0 ± 11.2	2.55 ± 0.14 ×10^−4 mol l^−1	0.68	–	–
